In the test the target is T1, soluble human BACE (Homo sapiens, UniProt P56817).
T1 construct: cells secreting human recombinant soluble BACE; made in house; conditioned medium
Description: BACE activity Cell Free Assay (ELISA of cleaved synthetic APP substrate). It is filed as biochemical. On the technique in general: An ELISA detects its analyte on a solid surface through an enzyme-linked reagent.

The mark [1] stands for this setting: Table 4, cell free, soluble human BACE, pH 4.5, 3 μM substrate, read-out: BACE Activity (Cell Free Assay IC50).

41 molecules from patent US20110224231A1, “Novel Lactams as Beta Secretase Inhibitors” (Pfizer Inc., priority 2008, published 2011) can be followed below.

Structures can show the parent of a compound that is named as a salt. Where two headings read alike, the source gives them in different places.

What is called IC50 is the concentration needed to halve the response being measured.

T1 sequence (P56817 46-457 limits assumed): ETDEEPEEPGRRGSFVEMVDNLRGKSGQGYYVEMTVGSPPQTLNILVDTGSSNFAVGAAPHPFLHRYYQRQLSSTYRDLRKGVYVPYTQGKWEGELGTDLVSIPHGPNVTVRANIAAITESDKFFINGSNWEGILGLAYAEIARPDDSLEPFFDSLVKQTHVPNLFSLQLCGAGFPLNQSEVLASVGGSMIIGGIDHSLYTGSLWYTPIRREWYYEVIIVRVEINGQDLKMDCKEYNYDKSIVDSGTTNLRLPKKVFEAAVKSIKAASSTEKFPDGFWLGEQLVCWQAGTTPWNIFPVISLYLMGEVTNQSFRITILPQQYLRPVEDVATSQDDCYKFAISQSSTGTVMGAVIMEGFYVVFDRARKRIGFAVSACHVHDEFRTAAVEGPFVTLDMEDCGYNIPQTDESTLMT

`Cc1cncc(N2C(=O)C=C[C@]23CCN(Cc2cccc(OC(C)C)c2)[C@@H](C)C3)c1` [#114] returned an IC50 of 1 to 10 µM. In turn, `CC1CC2(C=CC(=O)N2c2cccc(F)c2)CCN1Cc1c[nH]c2cc(C(F)(F)F)ccc12` (racemic) [Example 67, Racemic (5R,7S),(5S,7R)-1-(3-fluorophenyl)-7-methyl-8-{[6-(trifluoromethyl)-1H-indol-3-yl]methyl}-1,8-diazaspiro [4.5]dec-3-en-2-one] yielded an IC50 of 10 to 100 µM. The same measure, in the same setting: with `Cc1cccc(N2C(=O)C=C[C@]23CCN(Cc2cccc(OC(C)C)c2)[C@@H](C)C3)n1` [#107] the figure was 1 to 10 µM; with `CC1CC2(CCC(=O)N2c2cccc(F)c2)CCN1Cc1cc(Br)ccc1F` (racemic) [Example 53, Racemic (5R,7S),(5S,7R)-8-(5-bromo-2-fluorobenzyl)-1-(3-fluorophenyl)-7-methyl-1,8-diazaspiro[4.5]decan-2-one], 100 to 300 µM.

Turning to `CC1CC2(CCC(=O)N2c2cccc(F)c2)CCN1Cc1cccc(Oc2ccc(Cl)cc2)c1` (racemic) [Example 55, Racemic (5R,7S),(5S,7R)-8-[3-(4-chlorophenoxy)benzyl]-1-(3-fluorophenyl)-7-methyl-1,8-diazaspiro[4.5]decan-2-one], the IC50 is 10 to 100 µM. On the same count and under the same terms, in the case of `COc1ccc(Oc2cccc(CN3CCC4(C=CC(=O)N4c4cccc(F)c4)CC3C)c2)cc1` (racemic) [Example 3, Racemic (5R,7S),(5S,7R)-1-(3-fluorophenyl)-8-[3-(4-methoxyphenoxy)benzyl]-7-methyl-1,8-diazaspiro[4.5]dec-3-en-2-one] it was 10 to 100 µM; in that of `C[C@H]1C[C@@]2(C=CC(=O)N2c2cnccn2)CCN1Cc1ccc(O)c(Cl)c1` [#140, (5R,7S)-8-(3-chloro-4-hydroxybenzyl)-7-methyl-1-pyrazin-2-yl-1,8-diazaspiro[4.5]dec-3-en-2-one, ammonium salt], 10 to 100 µM.

The molecule `CC1CC2(CCC(=O)N2c2cccc(F)c2)CCN1Cc1c[nH]c2ccc(Cl)cc12` (racemic) [Example 70, Racemic (5R,7S),(5S,7R)-8-[(5-chloro-1H-indol-3-yl)methyl]-1-(3-fluorophenyl)-7-methyl-1,8-diazaspiro[4.5]decan-2-one] displayed an IC50 of 10 to 100 µM. The same measure, in the same setting: in the case of `CC1CC2(C=CC(=O)N2c2cccc(F)c2)CCN1Cc1cccc(Oc2ccccc2)c1` (racemic) [Example 22, Racemic (5R,7S),(5S,7R)-1-(3-fluorophenyl)-7-methyl-8-(3-phenoxybenzyl)-1,8-diazaspiro[4.5]dec-3-en-2-one] it was 10 to 100 µM. Same read-out and setting: in the case of `CC1CC2(C=CC(=O)N2c2cccc(F)c2)CCN1Cc1nc(-c2cccc(Cl)c2)cs1` (racemic) [Example 71, Racemic (5R,7S),(5S,7R)-8-{[4-(3-chlorophenyl)-1,3-thiazol-2-yl]methyl}-1-(3-fluorophenyl)-7-methyl-1,8-diazaspiro[4.5]dec-3-en-2-one] it was 10 to 100 µM; in that of `CC1CC2(CCC(=O)N2c2cccc(F)c2)CCN1Cc1c[nH]c2cc(C(F)(F)F)ccc12` (racemic) [Example 84, Racemic (5R,7S),(5S.7R)-1-(3-fluorophenyl)-7-methyl-8-{[6-(trifluoromethyl)-1H-indol-3-yl]methyl}-1,8-diazaspiro[4.5]decan-2-one], 100 to 300 µM.

Take `COc1ccc(-c2csc(CN3CCC4(C=CC(=O)N4c4cccc(F)c4)CC3C)n2)cc1` (racemic) [Example 73, Racemic (5R,7S),(5S,7R)-1-(3-fluorophenyl)-8-{[4-(4-methoxyphenyl)-1,3-thiazol-2-yl]methyl}-7-methyl-1,8-diazaspiro[4.5]dec-3-en-2-one]: the IC50 lay within 10 to 100 µM.

In the case of `CC1CC2(C=CC(=O)N2c2cccc(F)c2)CCN1Cc1cc(Br)ccc1F` (racemic) [Example 23, Racemic (5R,7S),(5S,7R)-8-(5-bromo-2-fluorobenzyl)-1-(3-fluorophenyl)-7-methyl-1,8-diazaspiro[4.5]dec-3-en-2-one], the IC50 was in the range of 10 to 100 µM. Molecule `C[C@H]1C[C@@]2(C=CC(=O)N2c2cccc(F)c2)CCN1Cc1scnc1CC1CC1` [#210] had an IC50 of 0.001 to 1 µM.

Turning to `CC1CC2(C=CC(=O)N2c2cccc(F)c2)CCN1Cc1cccc(OC2CCCC2)c1` (racemic) [Example 20, Racemic (5R,7S),(5S,7R)-8-[3-(cyclopentyloxy)benzyl]-1-(3-fluorophenyl)-7-methyl-1,8-diazaspiro[4.5]dec-3-en-2-one], the IC50 was in the range of 10 to 100 µM. Same read-out and setting: with `CC(C)Oc1cccc(CN2CC[C@]3(C=CC(=O)N3c3ccn(C)n3)C[C@@H]2C)c1` [#122] the figure was 10 to 100 µM. Turning to `C[C@H]1C[C@@]2(C=CC(=O)N2c2cccc(F)c2)CCN1Cc1ccc(O)c(Cl)c1` [#201], the IC50 was 1 to 10 µM. Still for that read-out and setting: in the case of `CCOc1cccc(CN2CCC3(CCC(=O)N3c3cccc(F)c3)CC2C)c1` (racemic) [Example 33, Racemic (5R,7S),(5S,7R)-8-(3-ethoxybenzyl)-1-(3-fluorophenyl)-7-methyl-1,8-diazaspiro[4.5]decan-2-one] it was 100 to 300 µM; in that of `CCn1cc(N2C(=O)C=C[C@]23CCN(Cc2cccc(OC(C)C)c2)[C@@H](C)C3)cn1` [#123], 100 to 300 µM. The same measure, in the same setting: in the case of `CCCn1nccc1CN1CCC2(CCC(=O)N2c2cccc(F)c2)CC1C` (racemic) [Example 39, Racemic (5R,7S),(5S,7R)-1-(3-fluorophenyl)-7-methyl-8-[(1-propyl-1H-pyrazol-5-yl)methyl]-1,8-diazaspiro[4.5]decan-2-one] it was 100 to 300 µM; in that of `CC1CC2(C=CC(=O)N2c2cccc(F)c2)CCN1Cc1n[nH]c2ccc(Cl)cc12` (racemic) [Example 65, Racemic (5R,7S),(5S,7R)-8-[(5-chloro-1H-indazol-3-yl)methyl]-1-(3-fluorophenyl)-7-methyl-1,8-diazaspiro[4.5]dec-3-en-2-one], 10 to 100 µM; in that of `COc1ccc(F)c(CN2CCC3(C=CC(=O)N3c3cccc(F)c3)CC2C)c1` (racemic) [Example 14, Racemic (5R,7S),(5S,7R)-8-(2-fluoro-5-methoxybenzyl)-1-(3-fluorophenyl)-7-methyl-1,8-diazaspiro[4.5]dec-3-en-2-one], 100 to 300 µM.

`COc1cc(CN2CCC3(C=CC(=O)N3c3cccc(F)c3)CC2C)ccc1F` (racemic) [Example 13, Racemic (5R,7S),(5S,7R)-8-(4-fluoro-3-methoxybenzyl)-1-(3-fluorophenyl)-7-methyl-1,8-diazaspiro[4.5]dec-3-en-2-one] registered an IC50 of 10 to 100 µM. With `C[C@H]1C[C@@]2(C=CC(=O)N2c2cccc(F)c2)CCN1Cc1ccc(O)c(-c2ccccc2Cl)c1` [#206], the IC50 was 0.001 to 1 µM. Still for that read-out and setting: in the case of `CC1CC2(CCC(=O)N2c2cccc(F)c2)CCN1Cc1ccc(O)cc1` (racemic) [Example 37, Racemic (5R,7S),(5S,7R)-1-(3-fluorophenyl)-8-(4-hydroxybenzyl)-7-methyl-1,8-diazaspiro[4.5]decan-2-one] it was 10 to 100 µM; in that of `Cc1ccc(N2C(=O)C=C[C@]23CCN(Cc2cccc(OC(C)C)c2)[C@@H](C)C3)cn1` [#109], 10 to 100 µM. Same read-out and setting: with `C[C@H]1C[C@@]2(CCC(=O)N2c2cccc(F)c2)CCN1Cc1ccc(O)c(Cl)c1` [#214] the figure was 1 to 10 µM; with `COc1cc(F)cc(N2C(=O)C=C[C@]23CCN(Cc2cccc(OC(C)C)c2)[C@@H](C)C3)c1` [#112], 1 to 10 µM. Regarding `CC(C)Oc1cccc(CN2CC[C@]3(C=CC(=O)N3c3ccc(F)cn3)C[C@@H]2C)c1` [#124], the IC50 under setting [1] lay within 10 to 100 µM. `CC(C)Oc1cccc(CN2CCC3(C=CC(=O)N3c3cccc(F)c3)CC2C)c1` (racemic) [Example 16, Racemic (5R,7S),(5S,7R)-1(3-fluorophenyl)-8-(3-isopropoxybenzyl)-7-methyl-1,8-diazaspiro[4.5]dec-3-en-2-one] had an IC50 of 1 to 10 µM. Same read-out and setting: in the case of `Cc1cccnc1N1C(=O)C=C[C@]12CCN(Cc1cccc(OC(C)C)c1)[C@@H](C)C2` [#115] it was 10 to 100 µM; in that of `COc1cccc(CN2CCC3(C=CC(=O)N3c3cccc(F)c3)CC2C)c1` (racemic) [Example 8, Racemic (5R,7S),(5S,7R)-1-(3-fluorophenyl)-8-(3-methoxybenzyl)-7-methyl-1,8-diazaspiro[4.5]dec-3-en-2-one], 100 to 300 µM; in that of `CC1CC2(C=CC(=O)N2c2cccc(F)c2)CCN1Cc1cccc(-c2ccccn2)c1` (racemic) [Example 19, Racemic (5R,7S),(5S,7R)-1-(3-fluorophenyl)-7-methyl-8-(3-pyridin-2-ylbenzyl)-1,8-diazaspiro[4.5]dec-3-en-2-one], 10 to 100 µM. On the same count and under the same terms, in the case of `CCCOc1cccc(CN2CCC3(CCC(=O)N3c3cccc(F)c3)CC2C)c1` (racemic) [Example 46, Racemic (5R,7S),(5S,7R)-1-(3-fluorophenyl)-7-methyl-8-(3-propoxybenzyl)-1,8-diazaspiro[4.5]decan-2-one] it was 10 to 100 µM; in that of `CC(C)Oc1cccc(CN2CC[C@]3(C=CC(=O)N3c3cncc(Cl)c3)C[C@@H]2C)c1` [#117], 1 to 10 µM; in that of `COC1(OC)CC(c2cccc(CN3CCC4(C=CC(=O)N4c4cccc(F)c4)CC3C)c2)C1` (racemic) [Example 82, Racemic (5R,7S),(5S,7R)-8-[3-(3,3-dimethoxycyclobutyl)benzyl]-1-(3-fluorophenyl)-7-methyl-1,8-diazaspiro[4.5]dec-3-en-2-one], 100 to 300 µM. Same read-out and setting: with `Cc1ccc(F)cc1-c1cc(CN2CC[C@]3(C=CC(=O)N3c3cccc(F)c3)C[C@@H]2C)ccc1O` [#209] the figure was 0.001 to 1 µM; with `CCCn1nccc1CN1CC[C@]2(C=CC(=O)N2c2cccc(C)n2)C[C@@H]1C` [#138, (5R,7S)-7-methyl-1-(6-methylpyridin-2-yl)-8-[(1-propyl-1H-pyrazol-5-yl)methyl]-1,8-diazaspiro[4.5]dec-3-en-2-one], 10 to 100 µM; with `CC[C@@H](C)Oc1cccc(CN2CC[C@]3(C=CC(=O)N3c3cccc(F)c3)C[C@@H]2C)c1` [#203], 1 to 10 µM. Regarding `CC(C)Oc1cccc(CN2CC[C@]3(C=CC(=O)N3c3cncc(C#N)c3)C[C@@H]2C)c1` [#120], the IC50 fell in the range of 10 to 100 µM. Consider `Cc1ccc(N2C(=O)C=C[C@]23CCN(Cc2cccc(OC(C)C)c2)[C@@H](C)C3)nc1` [#105], for which the IC50 under setting [1] fell in the range of 10 to 100 µM.
